Measured values taken from publication PMC7906907, “Targeting STAT3 by a small molecule suppresses pancreatic cancer progression” (Oncogene, 2021).

Columns and labels:
PANC-1 = PANC-1 subcutaneous tumor growth xenograft model; assay type: in vivo
Experimental: Fig. 5 N4 suppresses pancreatic cancer growth in vivo. PANC-1 cells were injected into the right flank of BALB/c-nude mice. After the volume of tumor nodules reached 200–300 mm^3, the mice were randomly assigned to the indicated groups and were injected intraperitoneally daily with vehicle (n = 7), 40 mg/kg/d C188-9 (n = 7), 10 mg/kg/d N4 (n = 8), or 20 mg/kg/d N4 (n = 8). The mice were sacrificed after treatment for 20 days and the tumors from each group of mice were excised. A, B Tumor volumes were measured every 4 days. Tumor volumes were calculated by the formula: length × width^2 × 0.52. […] C After treatment for 20 days, the tumors from each group of mice were excised and photographed. D After the experiments, all the tumors were weighted. […] E Tumor samples were collected, and protein was extracted for western blot analysis. p-STAT3 (Y705), p-STAT3(S727), STAT3, and CMYC were detected, with GAPDH used as the loading control. Immunohistochemistry examinations were performed in the different treatment groups, p-STAT3 (Y705), Ki-67 and cleaved caspase3 were quantified (F) and photographed (G). The scale bar denotes 20 μm. Data are expressed as mean ± SD, **P < 0.01, ****P < 0.0001 and n.s. not significant by one-way ANOVA.
BALB/c-nude, male, 6–8-week-old mice were obtained from the Animal Center of East China Normal University. All animal experimental protocols were approved by the Animal Investigation Committee of the Institute of Biomedical Sciences, East China Normal University. PANC-1 cells (5 × 10^6) were suspended in PBS with 50% Matrigel and injected into the right flank of the mice. Treatment began after the tumor nodules reached 150–250 mm^3 in volume. The tumor-bearing mice were randomly assigned to four groups and treated with the indicated compounds. The tumor volume and mice body weight were measured after 4 days. The tumor volume (V) was calculated as length × width × width × 0.52. At the end of experiment, the mice were sacrificed. Solid tumors were removed and processed for immunohistochemistry analysis.

[1] = system: Pancreatic cancer cells (CAPAN-2, PANC-1, MIAPACA-2, BXPC-3, HPAC, and CFPAC-1); experiment: MTS proliferation assay, pancreatic cancer cells; assay type: cell-based; conditions: 48 h
Experimental: Fig. 4 N4 suppresses pancreatic cancer cell proliferation and migration and induces apoptosis. A Pancreatic cancer cells (CAPAN-2, PANC-1, MIAPACA-2, BXPC-3, HPAC, and CFPAC-1) and normal cells (HPNE, HAF) were incubated with the indicated concentration of N4 for 48 h. MTS assays were performed to detect the N4-mediated inhibition of cell proliferation. Data are shown as mean ± SD, *P < 0.05, **P < 0.01, ***P < 0.001, ****P < 0.0001, n.s. not significant by one-way ANOVA followed by multiple comparisons. B, C CAPAN-2, PANC-1, and MIAPACA-2 cells were treated with N4 (B) or C188-9 (C) for 7 days. The cells fixed and stained, and colony numbers were calculated. Experiments were carried out in triplicate with identical results obtained. […] Apoptotic cells were analyzed as described in Materials and Methods. […] In F, after 48 h transfection, transfected cells were seeded in 96-well plates, and cells were enumerated at day 1, day 2, and day 4, In G, different cells transfected with different siRNA were treated with the indicated concentrations of N4, and cell viability measured after a 48 h treatment. Data are expressed as mean ± SD, *P < 0.05, ***P < 0.001, n.s. not significant by one-way ANOVA followed by multiple comparisons. […] Data are expressed as mean ± SD, *P < 0.05, ***P < 0.001, n.s. not significant; Student’s t tests were performed. […]

PAN02-luc = experiment: Pancreatic cancer liver metastatic mouse model; assay type: in vivo, C57BL/6 mice; conditions: for mice alive: n = 5
Experimental: C57BL/6 mice were intrasplenically injected with luciferase-expressing PAN02 cells (PAN02-luc) in matrigel and tumor growth was assessed (A) and quantified (B) by bioluminescent imaging weekly. […] C After 4 weeks, mice were sacrificed and livers were imaged. D The body weight of C57BL/6 tumor-bearing mice were measured weekly.
C57BL/6, male, 8-week-old mice were obtained from the Animal Center of East China Normal University. All animal experimental protocols were approved by the Animal Investigation Committee of the Institute of Biomedical Sciences, East China Normal University. PAN02 cells that stably expressed luciferase (PAN02-luc) were embedded in Matrigel (BD Biosciences) and intrasplenically injected into mice. Tumors were allowed to grow for 1 week and treatment of the mice with either compound or control was started after grouping of the mice according to average bioluminescence. The IVIS Imaging System (Xenogen Corporation) was used to monitor pancreatic tumor growth and metastasis. Images and measurements of bioluminescent signals were acquired and analyzed using Living Image and Xenogen software.

COc1cc2c(cc1C(=O)Nc1cccc3cccnc13)CCC1C(C)(C)C(=O)C(C#N)=C[C@]21C (stereo partly drawn) [N4]
bodyweight of mice (PANC-1; 10 and 20 mg/kg/d): did not affect | pancreatic cancer growth (tumor volume) (PANC-1; 10 and 20 mg/kg/d, intraperitoneally daily, 20 days): significantly inhibited | Hematoxylin and eosin staining of main organs, signs of toxicity (PANC-1; mouse, in vivo): did not produce morphological signs of toxicity | proliferation of pancreatic cancer cells [1]: effectively inhibited | mice bodyweight (PAN02-luc; measured weekly): no obvious effect | tumor metastasis suppressed compared with the control group (PAN02-luc; week 4, 10 mg/kg/d): 63.25% | tumor metastasis suppressed compared with the control group (PAN02-luc; week 4, 20 mg/kg/d): 81.16% | mice alive (PAN02-luc; week 10, 10 mg/kg/d): 40% | mice alive (PAN02-luc; week 10, 20 mg/kg/d): 80%
